Activity calls are given as the source filed them. The rule behind the calls is not given here.
Experiments:
[1] = biological target: T1, C-C chemokine receptor type 1 (Mus musculus, UniProt P51675); assay: Displacement of [125I]hMIP-1alpha from mouse CCR1
T1 sequence (P51675 whole entry): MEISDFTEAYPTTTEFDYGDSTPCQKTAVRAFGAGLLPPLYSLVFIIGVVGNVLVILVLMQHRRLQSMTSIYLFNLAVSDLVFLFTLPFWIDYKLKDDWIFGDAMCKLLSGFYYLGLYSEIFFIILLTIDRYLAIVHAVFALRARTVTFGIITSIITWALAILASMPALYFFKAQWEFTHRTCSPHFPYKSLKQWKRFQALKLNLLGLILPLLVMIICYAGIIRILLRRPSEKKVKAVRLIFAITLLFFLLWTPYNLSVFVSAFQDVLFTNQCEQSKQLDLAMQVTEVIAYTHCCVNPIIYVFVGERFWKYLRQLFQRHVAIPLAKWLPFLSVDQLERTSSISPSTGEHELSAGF

[2] = biological target: T2, C-C chemokine receptor type 1 (Homo sapiens, UniProt P32246); assay: Antagonist activity at CCR1 receptor in human whole blood assessed as blocked of LKN1-mediated CD11b upregulation preincubated for 1 hr
T2 sequence (P32246 whole entry): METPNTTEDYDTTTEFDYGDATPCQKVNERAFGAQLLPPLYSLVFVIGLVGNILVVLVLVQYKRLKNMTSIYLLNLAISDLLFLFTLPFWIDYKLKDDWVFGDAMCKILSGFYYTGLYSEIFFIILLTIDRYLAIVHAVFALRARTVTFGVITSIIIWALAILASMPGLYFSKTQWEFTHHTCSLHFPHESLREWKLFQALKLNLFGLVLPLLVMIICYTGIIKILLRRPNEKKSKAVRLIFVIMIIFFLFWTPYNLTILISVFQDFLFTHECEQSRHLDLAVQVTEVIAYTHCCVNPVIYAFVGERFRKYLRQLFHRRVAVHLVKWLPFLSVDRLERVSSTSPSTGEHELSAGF

[3] = biological target: T3, C-X-C chemokine receptor type 5 (Homo sapiens) (UniProt P32302); assay: Binding affinity to CXCR5 receptor (unknown origin)
T3 sequence (whole entry): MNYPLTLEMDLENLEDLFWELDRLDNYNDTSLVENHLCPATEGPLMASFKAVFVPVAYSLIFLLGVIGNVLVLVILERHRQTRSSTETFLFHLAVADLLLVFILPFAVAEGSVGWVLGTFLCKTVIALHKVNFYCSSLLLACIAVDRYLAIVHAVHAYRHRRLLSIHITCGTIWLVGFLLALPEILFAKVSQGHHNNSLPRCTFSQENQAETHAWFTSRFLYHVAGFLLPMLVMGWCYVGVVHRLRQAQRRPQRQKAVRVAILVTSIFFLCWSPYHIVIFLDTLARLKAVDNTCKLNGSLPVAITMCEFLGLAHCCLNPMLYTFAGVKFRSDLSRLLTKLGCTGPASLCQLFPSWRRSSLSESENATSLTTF

[4] = biological target: C-C chemokine receptor type 2 (Homo sapiens) (UniProt P41597); assay: Binding affinity to CCR2 receptor (unknown origin)
[5] = Unbound fraction in human serum; assay type: ADME, cell-free
[6] = Bioavailability in mouse at 5 mg/kg; assay type: ADME, organism-based; conditions: in vivo
[7] = biological target: T4, C-X-C chemokine receptor type 3 (Homo sapiens) (UniProt P49682); assay: Binding affinity to CXCR3 receptor (unknown origin)
T4 sequence (whole entry): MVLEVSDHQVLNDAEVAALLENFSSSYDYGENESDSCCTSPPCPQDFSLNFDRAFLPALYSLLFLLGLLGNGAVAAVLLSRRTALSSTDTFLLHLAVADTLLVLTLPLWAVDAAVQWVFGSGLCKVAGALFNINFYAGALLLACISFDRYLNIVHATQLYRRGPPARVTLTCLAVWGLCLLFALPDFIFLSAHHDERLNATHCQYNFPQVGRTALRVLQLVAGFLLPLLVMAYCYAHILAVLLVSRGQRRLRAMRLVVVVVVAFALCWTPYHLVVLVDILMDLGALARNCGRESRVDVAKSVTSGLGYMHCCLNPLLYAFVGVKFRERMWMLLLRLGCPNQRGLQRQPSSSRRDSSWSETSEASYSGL

[8] = Metabolic stability in human liver microsomes assessed as compound remaining at 0.5 uM after 60 mins by UV-LC/MS analysis; assay type: ADME; conditions: read-out: Stability
[9] = Bioavailability in rat at 5 mg/kg; assay type: ADME, organism-based; conditions: in vivo
[10] = Metabolic stability in rat liver microsomes assessed as compound remaining at 0.5 uM after 60 mins by UV-LC/MS analysis; assay type: ADME; conditions: read-out: Stability
[11] = biological target: T5, Nuclear receptor subfamily 1 group I member 2 (Homo sapiens, UniProt O75469); assay: Transactivation of human full-length PXR transfected in human HepG2 cells after 24 hrs by luciferase reporter gene assay; assay type: cell-based
T5 sequence (O75469 whole entry): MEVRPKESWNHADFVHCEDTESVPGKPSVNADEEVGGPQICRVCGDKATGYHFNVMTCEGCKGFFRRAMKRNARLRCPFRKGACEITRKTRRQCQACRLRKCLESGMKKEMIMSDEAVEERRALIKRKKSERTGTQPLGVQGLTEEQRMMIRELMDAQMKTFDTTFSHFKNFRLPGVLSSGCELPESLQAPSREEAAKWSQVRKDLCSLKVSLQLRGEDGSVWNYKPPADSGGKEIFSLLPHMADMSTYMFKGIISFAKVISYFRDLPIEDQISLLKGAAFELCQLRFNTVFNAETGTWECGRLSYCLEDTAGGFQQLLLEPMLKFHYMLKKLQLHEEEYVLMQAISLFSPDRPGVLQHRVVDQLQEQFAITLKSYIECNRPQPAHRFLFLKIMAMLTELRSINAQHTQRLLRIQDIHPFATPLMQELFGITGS

[12] = biological target: T6, C-C chemokine receptor type 3 (Homo sapiens) (UniProt P51677); assay: Binding affinity to CCR3 receptor (unknown origin)
T6 sequence (whole entry): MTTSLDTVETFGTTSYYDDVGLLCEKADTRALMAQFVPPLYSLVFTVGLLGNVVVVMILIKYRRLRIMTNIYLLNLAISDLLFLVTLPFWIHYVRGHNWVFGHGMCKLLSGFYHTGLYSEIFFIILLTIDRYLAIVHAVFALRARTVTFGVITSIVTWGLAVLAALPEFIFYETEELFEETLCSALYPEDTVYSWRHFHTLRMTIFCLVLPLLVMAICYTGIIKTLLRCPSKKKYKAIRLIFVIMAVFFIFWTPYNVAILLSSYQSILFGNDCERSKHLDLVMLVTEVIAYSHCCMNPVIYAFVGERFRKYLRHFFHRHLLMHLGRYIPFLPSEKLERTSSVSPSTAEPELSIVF

[13] = Displacement of [125I]hMIP-1alpha from monkey PBMC CCR1; set-up: species or system Macaca mulatta
[14] = Bioavailability in dog at 5 mg/kg; assay type: ADME, organism-based, Canis lupus familiaris; conditions: in vivo
Homo sapiens = species: Homo sapiens; assay: Inhibition of Ca+ channel (unknown origin)

C-C chemokine receptor type 2 (Homo sapiens), sequence (P41597 whole entry, looked up): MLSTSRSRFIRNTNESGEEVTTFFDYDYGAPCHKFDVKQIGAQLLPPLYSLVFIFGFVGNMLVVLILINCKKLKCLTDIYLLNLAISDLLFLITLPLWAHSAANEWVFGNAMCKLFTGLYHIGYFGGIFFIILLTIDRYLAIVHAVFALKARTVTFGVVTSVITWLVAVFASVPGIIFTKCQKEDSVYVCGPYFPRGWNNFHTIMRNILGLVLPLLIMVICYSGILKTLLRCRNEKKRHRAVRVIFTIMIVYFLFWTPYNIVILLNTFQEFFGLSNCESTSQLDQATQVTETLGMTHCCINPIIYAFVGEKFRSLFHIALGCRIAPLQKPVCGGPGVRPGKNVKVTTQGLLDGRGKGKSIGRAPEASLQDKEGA

IC50 [1]: > 50 µM
IC50 [2]: 0.042 µM
Activity [3]: inactive
Activity [4]: inactive
fraction unbound [5]: 0.19
bioavailability [6]: 79%
Activity [7]: inactive
remaining at 1 h, 0.5 µM [8]: 100%
bioavailability [9]: 46%
remaining at 1 h, 0.5 µM [10]: 74%
EC50 [11]: > 25 µM
Activity [12]: inactive
IC50 [13]: > 50 µM
bioavailability [14]: 100%
inhibition (Homo sapiens): inactive
SMILES: CC(C)[C@@H](NC(=O)NCC(C)(C)O)C(=O)N1CC[C@](O)(c2ccc(Cl)cc2)C(C)(C)C1 [BMS-817399]

Source: ChEMBL document CHEMBL3351798, “Discovery of the CCR1 antagonist, BMS-817399, for the treatment of rheumatoid arthritis” (J Med Chem, 2014)
